The results in this text go back to US20200131144A1, “AMINE OR (THIO)AMIDE CONTAINING LXR MODULATORS” (Phenex-FXR GmbH, priority 2017, published 2020).

Broadly, the pEC50 is the negative decadic logarithm of the EC50, by convention in mol/L. A higher pEC50 goes with a low EC50.

Molecules are shown by their SMILES. pEC50: −log10 of the molar value.

One experiment deals with T1, LXRα full length (FL) (Homo sapiens, UniProt Q13133).
T1 construct: the full length (FL) proteins of LXRα (amino acids 1-447); NP005684; expressed in transfected cells; host or cells: HEK293
T1 sequence (Q13133 1-447): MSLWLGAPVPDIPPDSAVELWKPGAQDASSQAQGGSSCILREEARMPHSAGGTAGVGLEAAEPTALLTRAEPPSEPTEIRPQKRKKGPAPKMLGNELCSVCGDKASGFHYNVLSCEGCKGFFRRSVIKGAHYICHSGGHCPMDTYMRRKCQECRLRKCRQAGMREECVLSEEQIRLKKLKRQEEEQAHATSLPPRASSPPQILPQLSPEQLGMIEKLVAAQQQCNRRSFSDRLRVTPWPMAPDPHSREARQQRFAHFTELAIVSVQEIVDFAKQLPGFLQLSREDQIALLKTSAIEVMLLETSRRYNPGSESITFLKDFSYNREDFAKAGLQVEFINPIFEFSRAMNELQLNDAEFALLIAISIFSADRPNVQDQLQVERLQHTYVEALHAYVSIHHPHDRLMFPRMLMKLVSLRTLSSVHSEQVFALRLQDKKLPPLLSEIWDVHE
The experiment can be described thus: LXR Gal4 reporter transient transfection assay, mammalian two-hybrid, FL-M2H Gal4α. Type of experiment: cell-based. The following applies: HEK293 cells; inverse agonist unless *. Here is the method: (§1) The tested compounds were usually dissolved, tested and stored as 20 mM stock solutions in DMSO. Since sulfonyl acetic acid derivatives tend to decarboxylate under these conditions, these stock solutions were prepared, tested and stored as 20 mM DMSO stock solutions containing 100 mM trifluoroacetic acid (5 equivalents). Sulfonyl acetic acid derivatives are shelf stable as solid at rt for long time as reported by Griesbrecht et al. (Synlett 2010:374) or Faucher et al. (J. Med. Chem. 2004; 47:18).
(§2) LXR Gal4 Reporter Transient Transfection Assays
(§3) LXRα and LXRβ activity status was determined via detection of interaction with coactivator and corepressor proteins in mammalian two-hybrid experiments (M2H). For this, via transient transfection the full length (FL) proteins of LXRα (amino acids 1-447; NP005684; SEQ ID NO:1) or LXRβ-(amino acids 1-461; NP009052; SEQ ID NO:2) or the ligand-binding domains (LBD) of LXRα (amino acids 155-447 SEQ ID NO:3) or LXR (amino acids 156-461; SEQ ID NO:4) were expressed from pCMV-AD (Stratagene) as fusions to the transcriptional activation domain of NFkB. As cofactors, domains of either the steroid receptor coactivator 1 (SRC1; amino acids 552-887; SEQ ID NO:5) or of the corepressor NCoR (amino acids 1906-2312; NP006302; SEQ ID NO:6) were expressed as fusions to the DNA binding domain of the yeast transcription factor GAL4 (from pCMV-BD; Stratagene). Interaction was monitored via activation of a coexpressed Firefly Luciferase Reporter gene under control of a promoter containing repetitive GAL4 response elements (vector pFRLuc; Stratagene). Transfection efficiency was controlled via cotransfection of constitutively active pRL-CMV Renilla reniformis luciferase reporter (Promega). HEK293 cells were grown in minimum essential medium (MEM) with 2 mM L-glutamine and Earle's balanced salt solution supplemented with 8.3% fetal bovine serum, 0.1 mM non-essential amino acids, 1 mM sodium pyruvate, at 37° C. in 5% CO2. 3.5×10^4 cells/well were plated in 96-well cell culture plates in growth medium supplemented with 8.3% fetal bovine serum for 16-20 h to—90% confluency. For transfection, medium was taken off and LXR and cofactor expressing plasmids as well as the reporter plasmids are added in 30 μL OPTIMEM/well including polyethylene-imine (PEI) as vehicle. Typical amounts of plasmids transfected/well: pCMV-AD-LXR (5 ng), pCMV-BD-cofactor (5 ng), pFR-Luc (100 ng), pRL-CMV (0.5 ng). Compound stocks were prepared in DMSO, prediluted in MEM to a total volume of 120 μL, and added 4 h after addition of the transfection mixture (final vehicle concentration not exceeding 0.2%). Cells were incubated for additional 16 h, lysed for 10 min in 1×Passive Lysis Buffer (Promega) and Firefly and Renilla luciferase activities were measured sequentially in the same cell extract using buffers containing D-luciferine and coelenterazine, respectively. Measurements of luminescence were done in a BMG-luminometer.
In the case of `Cc1ccc2ccccc2c1C(=O)N(Cc1ccc(C(F)(F)F)o1)Cc1ccc(-c2cncc(C(C)(C)C(=O)O)c2)cc1OC(F)F` [27/64], the pEC50 was 6.00 to 7.00.

Compound `CC(c1cccc2ncccc12)N(Cc1ccc(-c2cccc(S(=O)(=O)CC(=O)O)c2)cc1)Cc1ccc(C(F)(F)F)o1` (stereo not drawn) [27/8] gave a pEC50 of 6.00 to 7.00.

`CN(C)c1ncc(CN(Cc2ccc(-c3cccc(C(C)(C)C(=O)O)c3)cc2)Cc2ccc(C(F)(F)F)o2)c2ccccc12` [27/18] had a pEC50 of more than 7.00.

The compound `Cc1ccc2c(F)cccc2c1CN(Cc1ccc(-c2cccc(C(C)(C)C(=O)O)c2)cc1)Cc1ccc(C(F)(F)F)o1` [27/44] gave a pEC50 of more than 7.00.

Turning to `CC(C)(C(=O)O)c1cccc(-c2ccc(CN(Cc3ccc(C(F)(F)F)o3)C(=O)C3C(C)(C)CCC3(C)C)cc2)c1` [27/97], the pEC50 is more than 7.00.

`Cc1ccc2ccccc2c1C(=O)N(Cc1ccc(-c2cccc(S(=O)(=O)CC(=O)NS(C)(=O)=O)c2)cc1)Cc1ccc(C(F)(F)F)o1` [5/4] had a negative-log EC50 (pEC50) of 5.00 to 6.00.

The compound `COc1cc(-c2cc(F)c(CO)c(S(=O)(=O)CC(=O)O)c2)ccc1CN(Cc1ccc(C(F)(F)F)o1)Cc1c(C)cc(C)cc1C` [22/10] had a pEC50 of 5.00 to 6.00.

In the case of `Cc1ccc2ccccc2c1CN(Cc1ccc(-c2cncc(S(=O)(=O)CC(=O)O)c2)cc1)Cc1ccc(C(F)(F)F)o1` [26/7], the pEC50 was 5.00 to 6.00.

`CC(C)(C(=O)O)c1cccc(-c2ccc(CN(Cc3ccc(C(F)(F)F)o3)C(=O)c3cccc4cnncc34)cc2)c1` [27/14] gave a pEC50 of 5.00 to 6.00.

Compound `Cc1ccc2ccccc2c1C(=O)N(Cc1ccc(-c2cccc([C@H](C)C(=O)O)c2)cc1)Cc1ccc(C(F)(F)F)o1` [10/6] had a pEC50 of more than 7.00.

The next experiment deals with T2, GST-LXRβ ligand-binding domain (Homo sapiens, UniProt P55055, INS174Q).
T2 construct: amino acids 156-461; NP009052; made in house; host or cells: E. coli
T2 sequence (P55055 with tags, fused parts or gaps INS174Q limits assumed): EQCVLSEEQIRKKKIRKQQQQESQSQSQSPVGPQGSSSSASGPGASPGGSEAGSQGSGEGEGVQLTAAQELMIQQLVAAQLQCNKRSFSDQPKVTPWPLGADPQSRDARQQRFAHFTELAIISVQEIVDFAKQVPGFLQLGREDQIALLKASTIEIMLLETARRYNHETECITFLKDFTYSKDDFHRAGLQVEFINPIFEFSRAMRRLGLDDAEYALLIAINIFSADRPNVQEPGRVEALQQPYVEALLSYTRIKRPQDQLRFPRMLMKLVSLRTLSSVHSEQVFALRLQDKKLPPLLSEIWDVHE
Description: TR-FRETβ activity assay (NCoA3 coactivator peptide recruitment). The class given is biochemical. The conditions noted are these: 1 μM 24(S)-25-epoxycholesterol as prestimulating agonist; inverse agonist unless *. Here is the method: The tested compounds were usually dissolved, tested and stored as 20 mM stock solutions in DMSO. […] Sulfonyl acetic acid derivatives are shelf stable as solid at rt for long time as reported by Griesbrecht et al. (Synlett 2010:374) or Faucher et al. (J. Med. Chem. 2004; 47:18). TR-FRETβ Activity Assay Recombinant GST-LXRβ ligand-binding domain (LBD; amino acids 156-461; NP009052; SEQ ID NO:4) was expressed in E. coli and purified via gluthatione-sepharose affinity chromatography. N-terminally biotinylated NCoA3 coactivator peptide (SEQ ID NO:7) was chemically synthesized (Eurogentec). […] Finally, a detection mix was added containing anti GST-Tb cryptate (CisBio; 610SAXLB) and Streptavidin-XL665 (CisBio; 610SAXLB) as fluorescent donor and acceptor, respectively, as well as the coactivator peptide and LXRβ-LBD protein (SEQ ID NO:4). The reaction was mixed thoroughly, equilibrated for 1 h at 4° C. and vicinity of LXRβ and coactivator peptide was detected by measurement of fluorescence in a VictorX4 multiplate reader (PerkinElmer Life Science) using 340 nm as excitation and 615 and 665 nm as emission wavelengths. Assays were performed in triplicates. Final Assay Concentrations of Components: 240 mM KCl, 1 μg/μL BSA, 0.002% Triton-X-100, 125 pg/μL anti GST-Tb cryptate, 2.5 ng/μL Streptavidin-XL665, coactivator peptide (400 nM), LXRP protein ([…], i.e. 76 nM).
The compound `Cc1ccc2ccccc2c1C(=O)N(Cc1ccc(C(F)(F)F)o1)Cc1ccc(-c2cncc(C(C)(C)C(=O)O)c2)cc1OC(F)F` [27/64] showed a pEC50 of 6.00 to 7.00.

The compound `CC(c1cccc2ncccc12)N(Cc1ccc(-c2cccc(S(=O)(=O)CC(=O)O)c2)cc1)Cc1ccc(C(F)(F)F)o1` (stereo not drawn) [27/8] showed a pEC50 of 5.00 to 6.00.

In the case of `CN(C)c1ncc(CN(Cc2ccc(-c3cccc(C(C)(C)C(=O)O)c3)cc2)Cc2ccc(C(F)(F)F)o2)c2ccccc12` [27/18], the pEC50 was 6.00 to 7.00.

In turn, `Cc1ccc2c(F)cccc2c1CN(Cc1ccc(-c2cccc(C(C)(C)C(=O)O)c2)cc1)Cc1ccc(C(F)(F)F)o1` [27/44] had a pEC50 of 6.00 to 7.00.

On to `CC(C)(C(=O)O)c1cccc(-c2ccc(CN(Cc3ccc(C(F)(F)F)o3)C(=O)C3C(C)(C)CCC3(C)C)cc2)c1` [27/97], for which the FRETβ entry was “C*”.

In turn, `Cc1ccc2ccccc2c1C(=O)N(Cc1ccc(-c2cccc(S(=O)(=O)CC(=O)NS(C)(=O)=O)c2)cc1)Cc1ccc(C(F)(F)F)o1` [5/4] had a pEC50 of 6.00 to 7.00.

`COc1cc(-c2cc(F)c(CO)c(S(=O)(=O)CC(=O)O)c2)ccc1CN(Cc1ccc(C(F)(F)F)o1)Cc1c(C)cc(C)cc1C` [22/10]: the pEC50 is 5.00 to 6.00.

Turning to `Cc1ccc2ccccc2c1CN(Cc1ccc(-c2cncc(S(=O)(=O)CC(=O)O)c2)cc1)Cc1ccc(C(F)(F)F)o1` [26/7], the pEC50 was less than 5.00.

`CC(C)(C(=O)O)c1cccc(-c2ccc(CN(Cc3ccc(C(F)(F)F)o3)C(=O)c3cccc4cnncc34)cc2)c1` [27/14] had a negative-log EC50 (pEC50) of 6.00 to 7.00.

`Cc1ccc2ccccc2c1C(=O)N(Cc1ccc(-c2cccc([C@H](C)C(=O)O)c2)cc1)Cc1ccc(C(F)(F)F)o1` [10/6] gave a pEC50 of more than 7.00.

Another experiment has as its target T3, LXRβ full length (FL) (Homo sapiens, UniProt P55055, INS174Q).
T3 construct: the full length (FL) proteins of LXRα (amino acids 1-447); NP005684; NP009052; expressed in transfected cells; host or cells: HEK293
T3 sequence (P55055 with tags, fused parts or gaps INS174Q): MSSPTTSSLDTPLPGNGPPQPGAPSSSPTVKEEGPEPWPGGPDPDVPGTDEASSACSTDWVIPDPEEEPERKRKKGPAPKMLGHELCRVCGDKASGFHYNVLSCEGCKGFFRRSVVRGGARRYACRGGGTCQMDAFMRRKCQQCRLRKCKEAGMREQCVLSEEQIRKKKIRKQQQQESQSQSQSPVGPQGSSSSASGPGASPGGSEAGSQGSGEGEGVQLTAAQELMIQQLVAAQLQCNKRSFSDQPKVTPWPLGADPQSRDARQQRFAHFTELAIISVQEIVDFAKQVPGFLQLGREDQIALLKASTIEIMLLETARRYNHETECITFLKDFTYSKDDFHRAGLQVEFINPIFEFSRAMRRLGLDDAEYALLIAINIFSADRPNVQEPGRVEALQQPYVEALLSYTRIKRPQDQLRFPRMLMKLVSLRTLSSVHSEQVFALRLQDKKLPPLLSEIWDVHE
The experiment can be described thus: LXR Gal4 reporter transient transfection assay, mammalian two-hybrid, FL-M2H Gal4β. Type of experiment: cell-based. The following applies: HEK293 cells; inverse agonist unless *. Here is the method:
as §1, §2, §3
In the case of `Cc1ccc2ccccc2c1C(=O)N(Cc1ccc(C(F)(F)F)o1)Cc1ccc(-c2cncc(C(C)(C)C(=O)O)c2)cc1OC(F)F` [27/64], the pEC50 is more than 7.00.

In turn, `CC(c1cccc2ncccc12)N(Cc1ccc(-c2cccc(S(=O)(=O)CC(=O)O)c2)cc1)Cc1ccc(C(F)(F)F)o1` (stereo not drawn) [27/8] had a pEC50 of 6.00 to 7.00.

As for `CN(C)c1ncc(CN(Cc2ccc(-c3cccc(C(C)(C)C(=O)O)c3)cc2)Cc2ccc(C(F)(F)F)o2)c2ccccc12` [27/18], the pEC50 was more than 7.00.

As for `Cc1ccc2c(F)cccc2c1CN(Cc1ccc(-c2cccc(C(C)(C)C(=O)O)c2)cc1)Cc1ccc(C(F)(F)F)o1` [27/44], the pEC50 is more than 7.00.

`CC(C)(C(=O)O)c1cccc(-c2ccc(CN(Cc3ccc(C(F)(F)F)o3)C(=O)C3C(C)(C)CCC3(C)C)cc2)c1` [27/97] showed a pEC50 of more than 7.00.

Take `Cc1ccc2ccccc2c1C(=O)N(Cc1ccc(-c2cccc(S(=O)(=O)CC(=O)NS(C)(=O)=O)c2)cc1)Cc1ccc(C(F)(F)F)o1` [5/4]: the pEC50 is 5.00 to 6.00.

In turn, `COc1cc(-c2cc(F)c(CO)c(S(=O)(=O)CC(=O)O)c2)ccc1CN(Cc1ccc(C(F)(F)F)o1)Cc1c(C)cc(C)cc1C` [22/10] gave a pEC50 of 6.00 to 7.00.

Compound `Cc1ccc2ccccc2c1CN(Cc1ccc(-c2cncc(S(=O)(=O)CC(=O)O)c2)cc1)Cc1ccc(C(F)(F)F)o1` [26/7] gave a pEC50 of 6.00 to 7.00.

Take `CC(C)(C(=O)O)c1cccc(-c2ccc(CN(Cc3ccc(C(F)(F)F)o3)C(=O)c3cccc4cnncc34)cc2)c1` [27/14]: the pEC50 was 6.00 to 7.00.

Compound `Cc1ccc2ccccc2c1C(=O)N(Cc1ccc(-c2cccc([C@H](C)C(=O)O)c2)cc1)Cc1ccc(C(F)(F)F)o1` [10/6] showed a pEC50 of more than 7.00.
